Reference: patent US3966737A, “Fluoro-substituted dibenso[b,f] thiepins” (priority 1973, dated 1976)
Entries after “also recorded” stand apart in the source; their conditions may differ.

Columns and labels:
Format in all cases: in vivo
[1] = "Pole Climbing" Test, conditioned reaction and unconditioned reaction of rats; conditions: for ED50: Rattus norvegicus, po, read-out: ED50 (Blocking of the conditioned reaction); for Quotient-ED10 (Blocking of the unconditioned reaction)/ED50 (Blocking of the conditioned reaction): higher quotient = stronger selectivity of the neuroleptic effect
Excerpt: The test provides information regarding the behavioral reactions of rats. Rats are trained to avoid an electrical stimulus (unconditioned stimulation) which is effected through a base grid a few seconds after an acoustical signal (conditioned stimulation) by climbing up a vertical rod in the test chamber. The blocking of the conditioned reaction is expressed by the parameter ED50 (mg/kg. p.o.), the blocking of the unconditioned reaction is expressed by the parameter ED10 (mg/kg. p.o.).

[2] = cataleptic effect in rats (intraperitoneal); conditions: for TD50 at 6 h: recorded every 30 minutes over 6 hours, read-out: ED50 (dose at which 50% of the animals are cataleptic)
Description: The following compounds were tested:
The test animals are considered to be cataleptic when the homolateral extremities remain in the crossed position for at least 10 seconds. The number of cataleptic animals is recorded every 30 minutes over a 6-hour period.

[3] = Rotating Rod Test (coordinated motor performance of mice); conditions: for ED50: Mus musculus, po, read-out: ED50 (dose which reduces the holding on period of the mice by 50%); for activity in the Rotating Rod Test (in words): compared with chlorpromazine
Description: In the Rotating Rod Test, the ability of mice to achieve a coordinated motor performance is investigated. After peroral administration of the test substance, the mice are placed upon a horizontal slowly rotating rod and the time they remain […] the rod is recorded.

[4] = system: turnover of dopamine in the basal ganglions; assay: Determination of Homovanillinic Acid (HVA) in rat brain; conditions: rats; for Increase in HVA, %: two hours, titer in untreated rats set at 100%
Excerpt: […] Thereafter, the homovanillinic acid is extracted from the supernatant portion of a homogenized mixture of the brains of the treated rats into butyl acetate and later into an aqueous solution and is oxidized with potassium ferric cyanide to a fluorescent dimer. […] The homovanillinic acid titer in untreated rats is arbitrarily set at 100%.

[5] = rat, in vivo, ip, rats, intraperitoneal
[6] = rats, intraperitoneal, as compared to chlorpromazine

Compound | ED50 ([1]; rats, p.o.) | quality (selectivity) of the neuroleptic activity relative to chlorpromazine (in words) ([1]; rats, p.o.) | strength of the neuroleptic activity relative to chlorpromazine (in words) ([1]; rats, p.o.) | Quotient-ED10 (Blocking of the unconditioned reaction)/ED50 (Blocking of the conditioned reaction) ([1]; rats, p.o.) | TD50 at 6 h [2, 5] | cataleptic effect (in words) [2, 6] | ED50 ([3]; mice, peroral) | activity in the Rotating Rod Test (in words) ([3]; mice, peroral) | ED50 [1] | cataleptic effect (in words) ([2]; rat, in vivo, ip) | Increase in HVA, % ([4]; 20 mg/kg p.o.) | ED50 [3] | activity in the HVA test relative to chlorpromazine (in words) [4] | Increase in HVA, % ([4]; 50 mg/kg p.o.) | activity in the Rotating Rod Test (in words) ([3]; mice, peroral, maleate)
CN1CCN(C2Cc3ccc(Cl)cc3Sc3ccc(F)cc32)CC1.O=C(O)/C=C\C(=O)O (stereo not drawn) [Product B, 1-(3-chloro-8-fluoro-10,11-dihydro-dibenzo[b,f]thiepin-10-yl)-4-methylpiperazine maleate] | 27 mg/kg | considerably superior to that of chlorpromazine | about half of that of chlorpromazine | 11.0 | 100 mg/kg | only very weak cataleptic effect | 3.1 mg/kg | superior to chlorpromazine |  |  |  |  |  |  | 
CN(C)CCCN1c2ccccc2Sc2ccc(Cl)cc21 [Chlorpromazine, chlorpromazine, reference compound] |  |  |  | 3.5 |  |  |  |  | 11.6 mg/kg | does demonstrate cataleptic effects | 321% | 5 mg/kg |  |  | 
O=C(O)/C=C\C(=O)O.OCCCN1CCN(C2Cc3cc(Cl)ccc3Sc3ccc(F)cc32)CC1 (stereo not drawn) [Product C, 4-(2-chloro-8-fluoro-10,11-dihydro-dibenzo[b,f]thiepin-10-yl)-1-piperazinepropanol maleate] |  |  |  |  | 64 mg/kg | only very weak cataleptic effect |  |  |  |  |  |  | nearly as potent as that of chlorpromazine | 273% | 
CN1CCN(C2Cc3cc(Cl)ccc3Sc3cc(F)ccc32)CC1.O=C(O)/C=C\C(=O)O (stereo not drawn) [Product A, 1-(2-chloro-7-fluoro-10,11-dihydro-dibenzo[b,f]thiepin-10-yl)-4-methylpiperazine maleate] | 30 mg/kg | about equal to that of chlorpromazine | about half that of chlorpromazine | 3.3 | 70 mg/kg | only very weak cataleptic effect | 5.8 mg/kg |  |  |  |  |  | nearly as potent as that of chlorpromazine | 280% | strong activity; also recorded: activity approximates that of chlorpromazine
